The text below walks through data of patent US20170173008A1, “ANTIMICROBIAL AGENTS AND SCREENING METHODS” (PRESIDENT AND FELLOWS OF HARVARD COLLEGE, priority 2014, published 2017).

The test system of experiment [1] is M. tuberculosis H37Rv. Description: M. tuberculosis H37Rv growth inhibition (Alamar Blue MIC). Conditions: three different media. The class given is cell-based, Mycobacterium tuberculosis. A general note: The colour change of resazurin is a common sign of viable cells or microbes.
Experiment [2] deals with T1, purified EcDsbB (Escherichia coli, UniProt P0A6M2, C49V/C8A).
T1 construct: made in house; host or cells: E. coli
T1 sequence (P0A6M2 whole entry C8A/C49V): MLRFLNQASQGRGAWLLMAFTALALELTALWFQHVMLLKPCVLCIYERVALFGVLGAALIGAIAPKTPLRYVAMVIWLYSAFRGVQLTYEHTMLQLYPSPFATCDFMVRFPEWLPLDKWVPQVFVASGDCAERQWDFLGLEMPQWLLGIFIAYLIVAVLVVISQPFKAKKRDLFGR
Description: In vitro assay of purified DsbB (ubiquinone reduction). The class given is biochemical, E. coli. Conditions: IC50 (μM), Table 9. An excerpt: In addition to the in vivo assays of MICs, we have purified DsbB from E. coli and assessed the concentration dependence for inhibition of the enzyme's activity in oxidizing DsbA.
In this assay, we determine the concentration of a compound necessary to reduce the activity of purified DsbB enzyme by 50%. DsbB uses ubiquinone as a co-factor for the generation of disulfide bonds. DsbB oxidizes DsbA and reduces ubiquinone. When it is in the oxidized state, ubiquinone absorbs strongly at 275 nm but it has a diminished absorbance when it is in the reduced state at the same wavelength. Therefore, DsbB activity can be measured by the reduction of ubiquinone and this is assessed by following the decrease of absorbance of ubiquinone at 275 nm. The assay uses 20 μM purified and DTT-reduced DsbA, 20 uM UbQ-5, and 2 nM purified DsbB at pH6.0.
We tested several compounds for their inhibitory effect on EcDsbB-mediated ubiquinone reduction using purified enzymes. In this assay, reduced DsbA provides the source of electrons that are used by EcDsbB to reduce ubiquinone-5. The compounds show dose-dependent inhibition of EcDsbB with half-maximal inhibitory concentrations (IC50) in the low-μM range.

The target in experiment [3] is T2, DsbB (Escherichia coli, UniProt P0A6M2, C49V/C8A).
T2 construct: expressed in transfected cells; host or cells: E. coli DHB7935 (HK295 ΔdsbB λatt::malF-lacZ102, φ80::pDSW206dsbBhis6-c-myc)
T2 sequence (P0A6M2 whole entry C8A/C49V): as above
Description: cell-based. To be noted: for EC50 RATIO (EC50 compound 16/EC50): E. coli DHB7935, liquid media. The class given is cell-based, E. coli.

Experiment [4] deals with E. coli DsbB (Escherichia coli, UniProt P0A6M2). Description: Blue/white beta-galactosidase agar assay, DsbB-based E. coli strain. The class given is cell-based. Conditions: agar assay.
Chain of E. coli DsbB (P0A6M2 whole entry): as the sequence (P0A6M2 whole entry C8A/C49V) above, with A8C, V49C counted along it
For experiment [5], the target named is T3, VKOR of M. tuberculosis (Mycobacterium tuberculosis, UniProt I6X5W1).
T3 sequence (I6X5W1 1-210): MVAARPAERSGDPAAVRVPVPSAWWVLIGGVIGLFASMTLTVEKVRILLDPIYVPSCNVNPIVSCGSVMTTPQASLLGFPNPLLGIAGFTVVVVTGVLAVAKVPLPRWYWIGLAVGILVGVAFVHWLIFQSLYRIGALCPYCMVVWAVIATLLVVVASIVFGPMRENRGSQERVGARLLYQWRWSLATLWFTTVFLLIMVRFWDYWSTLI
The class given is cell-based. Conditions: agar assay.

As for `Cc1oncc1C(=O)Nc1ccccc1` [Compound 4], the “effect on growth of M. tuberculosis (in words)” value (“effect on growth” below) in experiment [1] is “no effects”.

For the compound `Cc1nnc(-c2cccc(C)c2C)c(C)n1` [Compound 8], in experiment [1], the “effect on growth” value was “no effects”.

What is called IC50 is the concentration that gives 50% inhibition. The low end stands for greater potency, the high end for weaker potency. In general, EC50 refers to the concentration needed to bring the measured effect to its halfway point. A high value points to a need for much substance. On to `CCCCNc1c(Cl)cnn(-c2ccccc2)c1=O` [Compound 13], for which the IC50 in experiment [2] was found to be 8.12 µM. In experiment [3], the EC50 worked out at 30.4 µM.

In the case of `CCOc1c(Cl)cnn(-c2ccccc2)c1=O` [Compound 14], in experiment [2], the IC50 turned out to be 6.57 µM. Further, the EC50 in experiment [3] amounted to 25.6 µM.

As to `O=c1c(N2CCCC2)c(Cl)cnn1-c1ccccc1` [Compound 15], the half-maximal inhibitory concentration (IC50) in experiment [2] was found to be 8.24 µM. Also, it took 28.1 µM to reach a half-maximal effect in experiment [3] (EC50).

For the compound `O=c1c(Cl)c(Cl)cnn1-c1ccccc1` [Compound 16.2], in experiment [2], the IC50 was found to be 2.34 µM. Moreover, in experiment [3], the EC50 worked out at 2.04 µM, the “fold more inhibitory than compound 16” value came to 10 fold and the “EC50 RATIO (EC50 compound 16/EC50)” value is recorded as 2.49.

On to `Cc1cccc(Cn2ncc(Cl)c(Cl)c2=O)c1` [Compound 16.4], for which the midpoint of inhibition in experiment [2], the IC50, lay at 1.27 µM. Besides, in experiment [3], the midpoint of the response, the EC50, lay at 13.9 µM and the “EC50 RATIO (EC50 compound 16/EC50)” value is listed as 0.37.

In experiment [3], `O=c1c(Cl)c(Cl)cnn1Cc1ccc([N+](=O)[O-])cc1` [Compound 16.8] yielded an EC50 of 38.7 µM.

As for `N#Cc1cccc(Cn2ncc(Cl)c(Cl)c2=O)c1` [Compound 16.9], in experiment [3], a half-maximal effect (EC50) was put at 509 µM.

Regarding `COc1cccc(Cn2ncc(Cl)c(Cl)c2=O)c1` [Compound 16.11], in experiment [3], the EC50 came to 232 µM.

In the case of `O=c1c(Cl)c(Cl)cnn1Cc1ccccc1Br` [Compound 16.12], in experiment [3], the EC50 was 0.47 µM, the “fold more inhibitory than compound 16” value stood at 10 fold and the “EC50 RATIO (EC50 compound 16/EC50)” value came out at 10.77.

As to `Cc1ccccc1Cn1ncc(Cl)c(Cl)c1=O` [Compound 16.13], in experiment [3], the EC50 was 3.56 µM and the “EC50 RATIO (EC50 compound 16/EC50)” value is 1.43.

Regarding `N#Cc1ccccc1Cn1ncc(Cl)c(Cl)c1=O` [Compound 16.14], in experiment [3], the 50% effective concentration (EC50) worked out at 13.2 µM and the “EC50 RATIO (EC50 compound 16/EC50)” value is listed as 0.39.

As to `O=c1c(Br)c(Br)cnn1Cc1ccccc1` [Compound 16.17], a half-maximal effect in experiment [3] (EC50) was put at 13.2 µM. This counts as double-digit micromolar.

For the compound `O=c1c(Cl)c(Cl)cnn1-c1ccccc1Cl` [Compound 16.20], in experiment [3], the EC50 turned out to be 1.34 µM and the “EC50 RATIO (EC50 compound 16/EC50)” value came out at 3.80.

For the compound `O=c1c(Cl)c(Cl)cnn1Cc1c(F)cccc1Cl` [Compound 16.22], the EC50 in experiment [3] came out at 18.1 µM.

Turning to `O=c1c(Cl)c(Cl)cnn1Cc1ccccc1F` [Compound 16.23], in experiment [3], the EC50 came out at 3.09 µM and the “EC50 RATIO (EC50 compound 16/EC50)” value stood at 1.65.

Turning to `O=c1c(Cl)c(Cl)cnn1-c1ccccc1F` [Compound 16.24], in experiment [3], the response was half-maximal at 13.7 µM (EC50) and the “EC50 RATIO (EC50 compound 16/EC50)” value came to 0.73.

The compound `O=c1cc(Cl)cnn1Cc1ccccc1Cl` [Compound 16.25, 5-chloro-2-(2-chlorobenzyl)pyridazin-3(2H)-one] had an EC50 in experiment [3] of 8.37 µM.

Compound `Cc1c(Cl)cnn(Cc2ccccc2Cl)c1=O` [Compound 16.26, 5-chloro-2-(2-chlorobenzyl)-4-methylpyridazin-3(2H)-one] had an EC50 in experiment [3] of 18.7 µM.

In turn, `O=c1c(Br)c(Br)cnn1Cc1ccccc1Cl` [Compound 16.27, 4,5-dibromo-2-(2-chlorobenzyl)pyridazin-3(2H)-one] had an EC50 in experiment [3] of 0.025 µM. Compared with the last compound, the EC50 is about 750-fold lower.

`O=c1c(Cl)c(Cl)cnn1Cc1ccccc1C(F)(F)F` [Compound 16.35, 4,5-dichloro-2-(2-(trifluoromethyl)benzyl)pyridazin-3(2H)-one] registered an EC50 in experiment [3] of 2.81 µM.

`O=c1c(Cl)c(Cl)cnn1Cc1ccccc1OC(F)(F)F` [Compound 16.36, 4,5-dichloro-2-(2-(trifluoromethoxy)benzyl)pyridazin-3(2)-one] had an EC50 in experiment [3] of 7.12 µM.

In experiment [3], `O=c1c(Cl)c(Cl)cnn1Cc1c(Cl)cccc1Cl` [Compound 16.37, 4,5-dichloro-2-(2,6-dichlorobenzyl)pyridazin-3(2H)-one] came in with an EC50 of 6570 µM.

In experiment [3], `O=c1c(Cl)c(Cl)cnn1Cc1ccncc1Cl` [Compound 16.39] returned an EC50 of 15.2 µM. Compared with the last compound, the EC50 is about 430-fold lower.

In experiment [3], `O=c1c(Cl)c(Cl)cnn1Cc1ncccc1Cl` [Compound 16.40, 4,5-dichloro-2-((3-chloropyridin-2-yl)methyl)pyridazin-3(2H)-one] yielded an EC50 of 10.8 µM.

Compound `O=c1c(Cl)c(Cl)cnn1Cc1cccs1` [Compound 16.41, 4,5-dichloro-2-(thiophen-2-ylmethyl)pyridazin-3(2H)-one] returned an EC50 in experiment [3] of 33.1 µM.

Turning to `O=c1c(Cl)c(Cl)cnn1Cc1sccc1Cl` [Compound 16.42, 4,5-dichloro-2-((3-chlorothiophen-2-yl)methyl)pyridazin-3(2H)-one], the response in experiment [3] was half-maximal at 1.45 µM (EC50).

In experiment [3], `O=c1c(Br)c(Cl)cnn1Cc1ccccc1Cl` [Compound 16.43, 4-bromo-5-chloro-2-(2-chlorobenzyl)pyridazin-3(2H)-one] displayed an EC50 of 0.29 µM.

`O=c1c(Cl)c(Br)cnn1Cc1ccccc1Cl` [Compound 16.44, 5-bromo-4-chloro-2-(2-chlorobenzyl)pyridazin-3(2H)-one] displayed an EC50 in experiment [3] of 0.32 µM.

In turn, `COc1c(Cl)cnn(-c2cccc(C)c2)c1=O` [Compound 17] had an IC50 in experiment [2] of 5.42 µM. In experiment [3], this compound displayed an EC50 of 72.8 µM.

For `COC(C)(C)C#CC(=O)c1cccc2ccccc12` [Compound 23], in experiment [4], the “inhibition of the DsbB-based strain, in words” value is listed as “weak inhibitor”. Besides, the “effect on growth” value in experiment [1] was “inhibitor of M. tuberculosis growth”.

On to `O=C1c2ccccc2C(=O)C1c1ccc(Br)cc1` [brominedione, reference compound], for which the “inhibition in the VKOR screen (MtbVKOR-based strain), in words” value in experiment [5] is recorded as “strong inhibitor”. In addition, the “inhibition of the DsbB-based strain, in words” value in experiment [4] was “not of the DsbB-based strain”.
